Measured values as given in the supplement of paper PMC10307832.

Experiments:
Assay in all cases: relative viability (nuclei count vs DMSO), 5 days (fraction); higher = more cells survive
[1] = test system: HARA
Procedure, shortened: (§1)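 Relative viability equals treated-well nuclei counts divided by vehicle-well nuclei counts. Counts came from 4× images of lung cancer cell lines grown in 1536-well plates for 5 days after pin-tool dosing on the day after seeding. Dosing used one drug alone or a fixed anchor-drug dose plus five library-drug doses (not always all listed) in √10 steps, and values are medians of duplicate plates.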

[2] = test system: NCI-H441
Procedure, shortened: as §1

[3] = test system: NCI-H1650
Procedure, shortened: as §1

[4] = test system: 201T
Procedure, shortened: as §1

[5] = test system: NCI-H358
Procedure, shortened: as §1

[6] = test system: BEN
Procedure, shortened: as §1

[7] = test system: HCC-15
Procedure, shortened: as §1

[8] = test system: NCI-H23
Procedure, shortened: as §1

[9] = test system: NCI-H1975
Procedure, shortened: as §1

[10] = test system: NCI-H1792
Procedure, shortened: as §1

[11] = test system: COR-L23
Procedure, shortened: as §1

[12] = test system: SK-MES-1
Procedure, shortened: as §1

[13] = test system: NCI-H1437
Procedure, shortened: as §1

[14] = test system: EKVX
Procedure, shortened: as §1

[15] = test system: NCI-H1666
Procedure, shortened: as §1

[16] = test system: NCI-H650
Procedure, shortened: as §1

[17] = test system: NCI-H596
Procedure, shortened: as §1

[18] = test system: HCC-44
Procedure, shortened: as §1

[19] = test system: A-427
Procedure, shortened: as §1

[20] = test system: NCI-H838
Procedure, shortened: as §1

[21] = test system: HCC-827
Procedure, shortened: as §1

O=c1cc(N2CCOCC2)oc2c(-c3cccc4c3sc3ccccc34)cccc12 + CS(=O)(=O)N1CCN(Cc2cc3nc(-c4cccc5[nH]ncc45)nc(N4CCOCC4)c3s2)CC1 [Pictilisib] (partner 1 µM)
relative viability ([1]; first compound 0.01 µM): 0.315
relative viability ([1]; first compound 0.03162 µM): 0.381
relative viability ([1]; first compound 0.1 µM): 0.435
relative viability ([1]; first compound 0.3162 µM): 0.362
relative viability ([1]; first compound 1 µM): 0.457
relative viability ([2]; first compound 0.01 µM): 0.561
relative viability ([2]; first compound 0.03162 µM): 0.483
relative viability ([2]; first compound 0.1 µM): 0.487
relative viability ([2]; first compound 0.3162 µM): 0.438
relative viability ([2]; first compound 1 µM): 0.579
relative viability ([3]; first compound 0.03162 µM): 0.549
relative viability ([3]; first compound 0.1 µM): 0.56
relative viability ([3]; first compound 0.3162 µM): 0.504
relative viability ([3]; first compound 1 µM): 0.514
relative viability ([4]; first compound 0.01 µM): 0.698
relative viability ([4]; first compound 0.03162 µM): 0.67
relative viability ([4]; first compound 0.1 µM): 0.692
relative viability ([4]; first compound 0.3162 µM): 0.705
relative viability ([4]; first compound 1 µM): 0.661
relative viability ([5]; first compound 0.01 µM): 0.339
relative viability ([5]; first compound 0.03162 µM): 0.353
relative viability ([5]; first compound 0.1 µM): 0.338
relative viability ([5]; first compound 0.3162 µM): 0.307
relative viability ([5]; first compound 1 µM): 0.318
relative viability ([6]; first compound 0.01 µM): 0.593
relative viability ([6]; first compound 0.03162 µM): 0.579
relative viability ([6]; first compound 0.1 µM): 0.593
relative viability ([6]; first compound 0.3162 µM): 0.655
relative viability ([6]; first compound 1 µM): 0.535
relative viability ([7]; first compound 0.01 µM): 0.66
relative viability ([7]; first compound 0.03162 µM): 0.74
relative viability ([7]; first compound 0.1 µM): 0.939
relative viability ([7]; first compound 0.3162 µM): 0.774
relative viability ([7]; first compound 1 µM): 0.714
relative viability ([8]; first compound 0.01 µM): 0.529
relative viability ([8]; first compound 0.03162 µM): 0.422
relative viability ([8]; first compound 0.3162 µM): 0.513
relative viability ([8]; first compound 1 µM): 0.442
relative viability ([9]; first compound 0.01 µM): 0.272
relative viability ([9]; first compound 0.03162 µM): 0.307
relative viability ([9]; first compound 0.1 µM): 0.287
relative viability ([9]; first compound 0.3162 µM): 0.305
relative viability ([9]; first compound 1 µM): 0.28
relative viability ([10]; first compound 0.01 µM): 0.286
relative viability ([10]; first compound 0.03162 µM): 0.264
relative viability ([10]; first compound 0.1 µM): 0.244
relative viability ([10]; first compound 0.3162 µM): 0.274
relative viability ([10]; first compound 1 µM): 0.252
relative viability ([11]; first compound 0.01 µM): 0.765
relative viability ([11]; first compound 0.03162 µM): 0.855
relative viability ([11]; first compound 0.1 µM): 0.846
relative viability ([11]; first compound 0.3162 µM): 0.757
relative viability ([11]; first compound 1 µM): 0.778
relative viability ([12]; first compound 0.01 µM): 0.327
relative viability ([12]; first compound 0.03162 µM): 0.314
relative viability ([12]; first compound 0.1 µM): 0.396
relative viability ([12]; first compound 0.3162 µM): 0.31
relative viability ([12]; first compound 1 µM): 0.362
relative viability ([13]; first compound 0.01 µM): 0.455
relative viability ([13]; first compound 0.03162 µM): 0.456
relative viability ([13]; first compound 0.1 µM): 0.542
relative viability ([13]; first compound 0.3162 µM): 0.478
relative viability ([13]; first compound 1 µM): 0.412
relative viability ([14]; first compound 0.01 µM): 0.418
relative viability ([14]; first compound 0.03162 µM): 0.496
relative viability ([14]; first compound 0.1 µM): 0.507
relative viability ([14]; first compound 0.3162 µM): 0.439
relative viability ([14]; first compound 1 µM): 0.431
relative viability ([15]; first compound 0.01 µM): 0.443
relative viability ([15]; first compound 0.03162 µM): 0.483
relative viability ([15]; first compound 0.1 µM): 0.504
relative viability ([15]; first compound 0.3162 µM): 0.412
relative viability ([15]; first compound 1 µM): 0.339
relative viability ([16]; first compound 0.01 µM): 0.907
relative viability ([16]; first compound 0.03162 µM): 1
relative viability ([16]; first compound 0.3162 µM): 0.896
relative viability ([16]; first compound 1 µM): 1.04
relative viability ([17]; first compound 0.01 µM): 0.442
relative viability ([17]; first compound 0.03162 µM): 0.39
relative viability ([17]; first compound 0.1 µM): 0.38
relative viability ([17]; first compound 0.3162 µM): 0.395
relative viability ([17]; first compound 1 µM): 0.38
relative viability ([18]; first compound 0.01 µM): 0.638
relative viability ([18]; first compound 0.03162 µM): 0.659
relative viability ([18]; first compound 0.1 µM): 1.87
relative viability ([18]; first compound 0.3162 µM): 0.543
relative viability ([18]; first compound 1 µM): 0.549
relative viability ([19]; first compound 0.01 µM): 0.902
relative viability ([19]; first compound 0.03162 µM): 0.8
relative viability ([19]; first compound 0.1 µM): 0.68
relative viability ([19]; first compound 0.3162 µM): 0.635
relative viability ([19]; first compound 1 µM): 0.742
relative viability ([20]; first compound 0.01 µM): 0.427
relative viability ([20]; first compound 0.03162 µM): 0.389
relative viability ([20]; first compound 0.1 µM): 0.434
relative viability ([20]; first compound 0.3162 µM): 0.472
relative viability ([20]; first compound 1 µM): 0.388
relative viability ([21]; first compound 0.01 µM): 1.04
relative viability ([21]; first compound 0.03162 µM): 0.809
relative viability ([21]; first compound 0.1 µM): 1.05
relative viability ([21]; first compound 0.3162 µM): 1.01
relative viability ([21]; first compound 1 µM): 0.997
